Measurements as given in patent publication US11389438B2 (CHDI Foundation, Inc., priority 2019, dated 2022).
Structures can show the parent of a compound that is named as a salt.

Biological target: pre-formed polyQ46 or Exon1-polyQ46 aggregates (mHTT) (Homo sapiens, UniProt P42858, INS38QQQQQQQQQQQQQQQQQQQQQQQQQ)
Assay: Q46_RBA radioligand binding assay (displacement of [3H]-radioligand)
Protocol: Binding of W to mHTT. A radioligand binding assay was developed to screen for compounds which can efficiently displace a radioligand detailed elsewhere (see, e.g., U.S. Patent Publication No. from US 2017/0292150) pre-formed polyQ46 or Exon1-polyQ46 aggregates (Q46_RBA).
Aggregation of polyQ peptides is initiated by cleavage of the tag from a GST-polyQ46 or from a MBP-Exon1-polyQ46 fusion protein. The pre-formed aggregates are then incubated with compounds which compete with the [^3H]-radiolabelled ligand for binding to the aggregates. The readout is a scintillation based MicroBeta measurement of radioligand bound to aggregates. The activity was indicated as: +++, <100 nM; ++, 100-500 nM, +, >500 nM.

## CC(C)C[C@H](NC(=O)[C@@H](O)[C@H](N)Cc1ccccc1)C(=O)NCCOCCOCCOc1ccc(C(=O)Nc2ccc3oc(-c4ccc(=O)n(C)n4)nc3c2)nc1 (stereo in doubt) [Compound 13]
  IC50: < 0.1 µM

## CNc1c(-c2cn3c(n2)sc2cc(OCCOCCOCCOCCOCC(=O)N[C@H](C(=O)N4C[C@H](O)C[C@H]4C(=O)NCc4ccc(-c5scnc5C)cc4)C(C)(C)C)ccc23)nc2cc(C#N)ccn12 [Compound 4, (2S,4R)-1-((S)-2-(tert-butyl)-17-((2-(7-cyano-3-(methylamino)-imidazo[1,2-a]pyridin-2-yl)benzo[d]imidazo[2,1-b]thiazol-7-yl)oxy)-4-oxo-6,9,12,15-tetraoxa-3-azaheptadecan-1-oyl)-4-hydroxy-N-(4-(4-methylthiazol-5-yl)benzyl)-pyrrolidine-2-carboxamide]
  IC50: 0.1 to 0.5 µM

## CNc1c(-c2cn3c(n2)sc2cc(OCCOc4cc(-c5scnc5C)ccc4CNC(=O)[C@@H]4C[C@@H](O)CN4C(=O)[C@H](C(C)C)N4Cc5ccccc5C4=O)ccc23)nc2cc(C#N)ccn12 [Compound 5, (2S,4R)—N-(2-(2-((2-(7-cyano-3-(methylamino)imidazo[1,2-a]pyridin-2-yl)benzo[d]imidazo[2,1-b]thiazol-7-yl)oxy)ethoxy)-4-(4-methylthiazol-5-yl)benzyl)-4-hydroxy-1-((S)-3-methyl-2-(1-oxoisoindolin-2-yl)butanoyl)pyrrolidine-2-carboxamide]
  IC50: 0.1 to 0.5 µM

## CNc1c(-c2cn3c(n2)sc2cc(OCCOCCOc4cc(-c5scnc5C)ccc4CNC(=O)[C@@H]4C[C@@H](O)CN4C(=O)[C@H](C(C)C)N4Cc5ccccc5C4=O)ccc23)nc2cc(C#N)ccn12 [Compound 6]
  IC50: 0.1 to 0.5 µM

## CNc1c(-c2cn3c(n2)sc2cc(OCCOCCOCCOc4cc(-c5scnc5C)ccc4CNC(=O)[C@@H]4C[C@@H](O)CN4C(=O)[C@H](C(C)C)N4Cc5ccccc5C4=O)ccc23)nc2cc(C#N)ccn12 [Compound 7]
  IC50: 0.1 to 0.5 µM

## CNc1c(-c2cn3c(n2)sc2cc(OCCOCCOCCOCCOc4cc(-c5scnc5C)ccc4CNC(=O)[C@@H]4C[C@@H](O)CN4C(=O)[C@H](C(C)C)N4Cc5ccccc5C4=O)ccc23)nc2cc(C#N)ccn12 [Compound 8]
  IC50: 0.1 to 0.5 µM

## CNc1c(-c2cn3c(n2)sc2cc(OCCOCCNc4cccc5c4C(=O)N(C4CCC(=O)NC4=O)C5=O)ccc23)nc2cc(C#N)ccn12 (stereo not drawn) [Compound 9]
  IC50: < 0.1 µM

## CC(C)C[C@H](NC(=O)[C@@H](O)[C@H](N)Cc1ccccc1)C(=O)NCCOCCOc1ccc(C(=O)Nc2ccc3oc(-c4ccc(=O)n(C)n4)nc3c2)nc1 [Compound 12]
  IC50: < 0.1 µM

## CC(C)C[C@H](NC(=O)[C@@H](O)[C@H](N)Cc1ccccc1)C(=O)NCCOCCOCCOCCOc1ccc(C(=O)Nc2ccc3oc(-c4ccc(=O)n(C)n4)nc3c2)nc1 [Compound 14]
  IC50: < 0.1 µM

## CC(C)C[C@H](NC(=O)[C@@H](O)[C@H](N)Cc1ccccc1)C(=O)NCCOCCOCCOCCOCCOc1ccc(C(=O)Nc2ccc3oc(-c4ccc(=O)n(C)n4)nc3c2)nc1 [Compound 15]
  IC50: < 0.1 µM

## CC(C)C[C@H](NC(=O)[C@@H](O)[C@H](N)Cc1ccccc1)C(=O)NCCOCCOCCOCCOCCOCCOc1ccc(C(=O)Nc2ccc3oc(-c4ccc(=O)n(C)n4)nc3c2)nc1 [Compound 16]
  IC50: < 0.1 µM

## CC(C)C[C@H](NC(=O)[C@@H](O)[C@H](N)Cc1ccccc1)C(=O)NCCOCCOCCOCCOCCOCCOCCOCCOCCOc1ccc(C(=O)Nc2ccc3oc(-c4ccc(=O)n(C)n4)nc3c2)nc1 [Compound 17]
  IC50: < 0.1 µM

## Cc1ncsc1-c1ccc(CNC(=O)[C@H]2C[C@H](O)CN2C(=O)[C@H](NC(=O)CCOCCOCCOCCOCCOCCOCCOCCOCCOCCOCCOCCOCCOCCOCCOCCOCCOc2ccc(C(=O)Nc3ccc4oc(-c5ccc(=O)n(C)n5)nc4c3)nc2)C(C)(C)C)cc1 [Compound 27]
  IC50: 0.1 to 0.5 µM

## Cc1ncsc1-c1ccc(CNC(=O)[C@@H]2C[C@@H](O)CN2C(=O)[C@@H](NC(=O)COCCOc2ccc(C(=O)Nc3ccc4oc(-c5ccc(=O)n(C)n5)nc4c3)nc2)C(C)(C)C)cc1 [Compound 29]
  IC50: < 0.1 µM

## Cn1nc(-c2nc3cc(NC(=O)c4ccc(OCCOCCNc5cccc6c5C(=O)N(C5CCC(=O)NC5=O)C6=O)cn4)ccc3o2)ccc1=O (stereo not drawn) [Compound 35]
  IC50: < 0.1 µM

## Cc1ncsc1-c1ccc(CNC(=O)[C@H]2C[C@H](O)CN2C(=O)[C@H](NC(=O)CCOCCOCCOCCOCCOCCOc2ccc(C(=O)Nc3ccc4oc(-c5ccc(=O)n(C)n5)nc4c3)nc2)C(C)(C)C)cc1 [Compound 41]
  IC50: < 0.1 µM

## CC(C)C[C@H](NC(=O)[C@@H](O)[C@H](N)Cc1ccccc1)C(=O)NCCOCCOCCOc1ccc(COc2ccc3oc(-c4ccc(=O)n(C)n4)nc3c2)nc1 [Compound 49, (2S)-2-[(2S,3R)-3-Azaniumyl-2-hydroxy-4-phenylbutanamido]-4-methyl-N-{2-[2-(2-{[6-({[2-(1-methyl-6-oxo-1,6-dihydropyridazin-3-yl)-1,3-benzoxazol-5-yl]oxy}methyl)pyridin-3-yl]oxy}ethoxy)ethoxy]ethyl}pentanamide formate]
  IC50: < 0.1 µM

## COc1ccc(C(=O)Nc2ccc3oc(-c4ccc(=O)n(CCOCCOCCNC(=O)[C@H](CC(C)C)NC(=O)[C@@H](O)[C@H](N)Cc5ccccc5)n4)nc3c2)nc1 [Compound 50, N-(2-{1-[2-(2-{2-[(2S)-2-[(2S,3R)-3-Amino-2-hydroxy-4-phenylbutanamido]-4-methylpentanamido]ethoxy}ethoxy)ethyl]-6-oxo-1,6-dihydropyridazin-3-yl}-1,3-benzoxazol-5-yl)-5-methoxypyridine-2-carboxamide]
  IC50: < 0.1 µM

## Cc1ncsc1-c1ccc(CNC(=O)[C@H]2C[C@H](O)CN2C(=O)[C@H](NC(=O)COCCOc2ccc(C(=O)Nc3ccc4oc(-c5ccc(=O)n(C)n5)nc4c3)nc2)C(C)(C)C)cc1 [Compound 51, 5-[2-({[(2R)-1-[(2R,4S)-4-Hydroxy-2-({[4-(4-methyl-1,3-thiazol-5-yl)phenyl]methyl}carbamoyl)pyrrolidin-1-yl]-3,3-dimethyl-1-oxobutan-2-yl]carbamoyl}methoxy)ethoxy]-N-[2-(1-methyl-6-oxo-1,6-dihydropyridazin-3-yl)-1,3-benzoxazol-5-yl]pyridine-2-carboxamide]
  IC50: < 0.1 µM

## CC(C)C[C@H](NC(=O)CCCc1ccccc1)C(=O)NCCOCCOCCOc1ccc(COc2ccc3oc(-c4ccc(=O)n(C)n4)nc3c2)nc1 [Compound 52, (2S)-4-Methyl-N-{2-[2-(2-{[6-({[2-(1-methyl-6-oxo-1,6-dihydropyridazin-3-yl)-1,3-benzoxazol-5-yl]oxy}methyl)pyridin-3-yl]oxy}ethoxy)ethoxy]ethyl}-2-(4-phenylbutanamido)pentanamide]
  IC50: < 0.1 µM

## CC(C)C[C@H](NC(=O)[C@@H](O)[C@H](N)Cc1ccccc1)C(=O)NCCOCCOCCOc1ccc(NC(=O)c2ccn3c(n2)nc2ccccc23)cn1 [Compound 59, N-{6-[2-(2-{2-[(2S)-2-[(2S,3R)-3-amino-2-hydroxy-4-phenylbutanamido]-4-methylpentanamido]ethoxy}ethoxy)ethoxy]pyridin-3-yl}-1,8,10-triazatricyclo[7.4.0.0^2,7]trideca-2,4,6,8,10,12-hexaene-11-carboxamide]
  IC50: < 0.1 µM
